We go through 2 molecules from publication PMC10328743, “5-Nitro-3-(2-(4-phenylthiazol-2-yl)hydrazineylidene)indolin-2-one derivatives inhibit HIV-1 replication by a multitarget mechanism of action” (Frontiers in Cellular and Infection Microbiology, 2023).

Experiment [1] addresses T1, HIV-1 RT-associated RNase H (Human immunodeficiency virus type 1 group M subtype B, UniProt P04585).
T1 construct: The 1:1 ratio between the p66/p51 subunits was also verified; His tag (implied only by Ni-NTA IMAC purification); made in house; host or cells: Escherichia coli M15
As to the kind of experiment: HIV-1 DNA polymerase-independent RNase H activity determination. Format: biochemical. Particulars: wt HIV-1 RT; three independent experiments, average ± standard deviation; read-out: RNase H IC50. The protocol:
Escherichia coli strain M15 containing the p6HRT-prot vector (provided by Stuart Le Grice laboratory (NCI Frederick)) was grown to an optical density at 600 nm of 0.7 and induced with 1.7 mM of isopropyl β-D-1-thiogalactopyranoside (IPTG) for 4 h. Protein purification was carried out with a BioLogic LP system (Bio-Rad, Hercules, CA, USA) using a combination of immobilized metal affinity chromatography (IMAC) and ion exchange chromatography. Cell pellets were resuspended in lysis buffer (50 mM of sodium phosphate buffer, pH 7.8, containing 0.5 mg/mL of lysozyme), incubated on ice for 20 min, and, after the addition of NaCl to a final concentration of 0.3 M, were sonicated and centrifuged at 30,000 ×g for 1 h. The supernatant was loaded onto a Ni^2+-NTA-Sepharose column pre-equilibrated with loading buffer (50 mM of sodium phosphate buffer, pH 7.8, containing 0.3 M of NaCl, 10% glycerol, and 10 mM of imidazole) and washed thoroughly with wash buffer (50 mM of sodium phosphate buffer, pH 6.0, containing 0.3 M of NaCl, 10% glycerol, and 80 mM of imidazole). RT was eluted with an imidazole gradient in the wash buffer (0–0.5 M). Fractions were collected, and protein purity was checked by sodium dodecyl sulfate–polyacrylamide gel electrophoresis (SDS-PAGE) and found to be higher than 90%. The 1:1 ratio between the p66/p51 subunits was also verified. Enzyme-containing fractions were pooled and diluted 1:1 with 50 mM of sodium phosphate buffer, pH 7.0, containing 10% glycerol, and then loaded into a Hi-trap heparin HP GE (Healthcare LifeScience) pre-equilibrated with 10 column volumes of loading buffer (50 mM of sodium phosphate buffer, pH 7.0, containing 10% glycerol, and 150 mM of NaCl). The column was then washed with loading buffer, and the RT was eluted with Elute Buffer 2 (50 mM of sodium phosphate, pH 7.0, 10% glycerol, 1 M of NaCl). Fractions were collected, and the protein was dialyzed and stored in a buffer containing 50 mM of Tris-HCl, pH 7.0, 25 mM of NaCl, 1 mM of EDTA, and 50% glycerol. Catalytic activities and protein concentrations were determined. Enzyme-containing fractions were pooled, and aliquots were stored at −80°C.
HIV RT-associated RNase H activity was measured as described ([Corona et al., 2016b]) in a 100-µl reaction volume containing 50 mM of Tris-HCl buffer, pH 7.8, 6 mM of MgCl2, 1 mM of dithiothreitol (DTT), 80 mM of KCl, 0.25 µM of hybrid RNA/DNA 5′-[…]-Fluorescin-3′ (high-performance liquid chromatography (HPLC), dry, QC: Mass Check) (available from Metabion) 5′-Dabcyl-[…]-3′ (HPLC, dry, QC: Mass Check), increasing concentrations of inhibitors, whose dilution were made in water, and different amounts of enzymes according to a linear range of the dose–response curve. The reaction mixture was incubated for 1 h at 37°C and stopped by the addition of EDTA, and products were measured with a multilabel counter plate reader Victor 3 equipped with filters for 490/528 nm.

Experiment [2] concerns the target T2, HIV-1 IN (LEDGF-independent) (Human immunodeficiency virus type 1 group M subtype B, UniProt P12497).
T2 construct: Preparation of recombinant full-length IN and LEDGF proteins; made in house; host or cells: E. coli BL21(DE3)
As to the kind of experiment: biochemical. The following applies: strand-transfer activity with omission of LEDGF/p75; read-out: IC50 IN LEDGF-independent integration. The protocol:
(§1) Proteins were expressed in E. coli BL21(DE3). Briefly, His-IN was purified by loading the precipitate of cell lysate onto a Ni-Sepharose column and eluting with a […] imidazole gradient (0–500 mM) in a HEPES buffer (50 mM, pH 7.5) containing NaCl (1 M), CHAPS (7.5 mM), and β-mercaptoethanol (2 mM). FLAG-IN was purified by loading the precipitate of cell lysate onto a phenyl-sepharose and ammonium sulfate gradient (0–800 mM) in a HEPES (pH 7.5, 50 mM) buffer containing NaCl (200 mM), CHAPS (7.5 mM), and β-mercaptoethanol (2 mM). Peak fractions were pooled, loaded onto a heparin column, and eluted with an increasing NaCl gradient (200 mM to 1 M) in a HEPES (pH 7.5, 50 mM) buffer containing CHAPS (7.5 mm) and β-mercaptoethanol (2 mM). Fractions containing integrase were pooled and stored in glycerol (10%) at −80°C.
Briefly, IN (50 nM) was preincubated with increasing concentrations of compounds for 1 h at room temperature in a reaction buffer containing HEPES (20 mM, pH 7.5), DTT (1 mM), glycerol (1%), MgCl2 (20 mM), Brij-35 (0.05%), and bovine serum albumin (BSA) (0.1 mg/ml).

Experiment [3] addresses T3, HIV-1 IN-LEDGF binding (Human immunodeficiency virus type 1 group M subtype B, UniProt P12497).
T3 construct: Preparation of recombinant full-length IN and LEDGF proteins; made in house; host or cells: E. coli BL21(DE3)
As to the kind of experiment: biochemical. The protocol: as §1
Briefly, His-IN was preincubated with different concentrations of a compound in a buffer containing NaCl (150 mm), MgCl2 (2 mM), Nonidet P-40 (0.1%), BSA (1 mg/ml), and Tris (pH 7.4, 25 mm) for 30 min at room temperature. Then, FLAG-LEDGF was added to the reaction mixture, and a mixture of anti-His6-XL665 and anti-FLAG-EuCryptate antibodies was added.

For experiment [4], the system named is HIV-1. As to the kind of experiment: Quantification of viral DNA genomes by qPCR in infected MT4 cells. In kind it is cell-based. The following applies: single HIV-1 replication cycle; for total viral DNA: increasing concentrations. Here is the method: Quantitative PCR (qPCR) was performed as described previously ([Munir et al., 2013]). […] Cells were washed in phosphate-buffered saline (PBS), and dry cell pellets were frozen at −80°C until use. DNA from samples was purified with QIAamp DNA Blood mini kit (Qiagen, Valencia, CA, USA) according to the manufacturer’s instructions. Quantification of total viral DNAs, 2-LTR circular viral DNA (2-LTRc), and integrated DNAs was performed on a LightCycler instrument (Roche Diagnostics, Basel, Switzerland) using the second-derivative-maximum method provided by the LightCycler quantification software, version 3.5 (Roche Diagnostics). Amplification of the β-globin gene (two copies per diploid cell) was performed to normalize the results using the commercially available materials (Control kit DNA; Roche Diagnostics). The quantification of the results for 2-LTRc and total HIV-1 DNA was expressed as copy numbers per µg DNA. Integrated HIV-1 DNA was expressed as a percentage of wt control. Data were represented by mean and standard deviation of two independent experiments; p-values were calculated between the infected and infected-treated conditions by unpaired, two-tailed t-tests using GraphPad Prism Version 9.5.1 software (GraphPad Software, Inc., San Diego, CA, USA). Figures were drawn with GraphPad Prism Version 9.5.1.
A general note: Real-time PCR tracks product formation cycle by cycle.

As for `Cc1ccc(-c2csc(N/N=C3\C(=O)Nc4ccc([N+](=O)[O-])cc43)n2)cc1` [10a], the IC50 in experiment [1] stood at 8.5 ± 0.5 µM. In experiment [2], the IC50 worked out at 35.5 ± 1.5 µM. Moreover, in experiment [3], the IC50 was over 100 µM and the “IC50 IN/LEDGF binding” value is given as “without interfering with the binding of LEDGF”. Also, in experiment [4], the “DNA 2LTRc levels” value is “marked increase” and the “total viral DNA” value is “decrease in total viral DNA”. Moreover, the “integrated viral DNA” value in experiment [4] (48 h) is “significantly more marked effect than 9b”.
`O=C1Nc2ccc(Cl)cc2/C1=N/Nc1nc(-c2ccc(Cl)c(Cl)c2)cs1` [9b]: the IC50 was 8.8 ± 1.3 µM in experiment [1], over 100 µM in experiment [2] and over 100 µM in experiment [3]. Further, in experiment [4], the “DNA 2LTRc levels” value is on record as “no increase”. In addition, the “total viral DNA” value in experiment [4] is reported as “decrease in total viral DNA”.
